Series [1] in a line: EE2 plasma pharmacokinetics alone and with SYM-1219 2 grams (Example 2, Part B). The class given is in vivo, human.
The next series is described as follows: clinical. As to conditions: female, human, plasma, Mean (% CV); for AUC(0-t): NET AUC0-t; for AUC(0-inf): NET AUC0-∞; for Cmax: NET Cmax.
For series [2], the system named is clinical isolates of T. vaginalis. The series can be described thus: Susceptibility testing, minimal lethal concentration (MLC), aerobic. The class given is cell-based, Trichomonas vaginalis. The method, then:
Susceptibility testing was conducted with one hundred (100) clinical isolates of T. vaginalis.
Archived, de-identified, clinical isolates of T. vaginalis that were banked in liquid nitrogen were used for this study. The samples had been collected between July 2015 and June 2017, in accordance with institutional review board guidelines, and all patients had consented to the storage and use of their samples for subsequent testing. […] In brief, trichomonads were grown in Diamond's medium 1025 (containing trypticase soy broth, yeast extract, maltose, and calf serum) adjusted to pH 5.9 and supplemented with streptomycin at 1 g/liter and penicillin G at 100 U/ml. A hemocytometer was used to count the trichomonad population and to adjust it to a concentration of 66,666 cells/ml. Isolates were tested in microtiter plates under aerobic conditions. […] Plates were then incubated at 37° C. for 46 hours to 50 hours and read with a Zeiss Axiovert inverted microscope. The concentration of drug in the microplate wells in which no motile trichomonads were observed was reported as the MLC. […] Low-level resistance was defined as an aerobic MLC of 50 μg/ml to 100 μg/ml, moderate-level resistance as an aerobic MLC of 200 μg/ml, and high-level resistance as an aerobic MLC of >400 μg/ml. The MLCs for metronidazole and secnidazole were analyzed using the Wilcoxon signed-rank test to evaluate the differences between treatments.
Each well of a 96-well plate was filled with 150 μL of T. vaginalis suspension in Diamond's growth media (10^4 trichomonads). […] Cultures were visually assessed for survival, defined by observation of motility, through a 100× inverted microscope.

A further series deals with T. vaginalis. As to conditions: cited from earlier work; for Cure rates in randomized clinical trials of recommended regimens: CDC 2015 Guidelines - Trichomoniasis.
The conditions of series [3]: CDC 2015 Guidelines - Trichomoniasis; cited from earlier work.
[4] abbreviates: Group B1 (SYM-1219 2 grams co-administered on Day 1).
Where [5] appears, read: Group B1: Period 2 (SYM-1219 2 grams same day) vs Period 1 (EE2/NET alone).
Where [6] appears, read: Group B1 Period 1: EE2/NET alone.
Setting [7] is: Group B1 Period 2: EE2/NET followed by SYM-1219 2 grams on Day 1.
Where [8] appears, read: Group B2 (EE2/NET 1 day after SYM-1219 2 grams).
The mark [9] stands for this setting: Group B2: Period 2 (EE2/NET 1 day after SYM-1219 2 grams) vs Period 1 (EE2/NET alone).
[10] abbreviates: Group B2 Period 1: EE2/NET alone.
Where [11] appears, read: Group B2 Period 2: SYM-1219 2 grams on Day 1, EE2/NET on Day 2.
The mark [12] stands for this setting: 100 clinical T. vaginalis isolates.
Where [13] appears, read: 100 clinical T. vaginalis isolates, aerobic, 46-50 h.
[14] abbreviates: meta-analysis of six published studies.

Converted amounts (≈) assume the structure as drawn. Like-named read-outs stand apart in the source and are kept apart here.

For the compound `C#C[C@]1(O)CC[C@H]2[C@@H]3CCc4cc(O)ccc4[C@H]3CC[C@@]21C` [EE2, ethinyl estradiol], in series [1] (setting [4]), the “Change in EE2 AUC” value was “no change” and the “EE2 Cmax reduced by” value is listed as 29%. In addition, in series [1] (setting [5]), the “EE2 AUC0-t, Geometric LSMean % Ratio (SE), 100*Test/Reference” value was 94.26 (2.683) %; the “EE2 AUC0-∞, Geometric LSMean % Ratio (SE), 100*Test/Reference” value is 105.37 (4.565) %; the “EE2 Cmax, Geometric LSMean % Ratio (SE), 100*Test/Reference” value is given as 71.07 (4.951) %. Also, in series [1] (setting [6]), the “EE2 AUC0-t, Mean (% CV)” value is on record as 643.67 (23.85) h*pg/mL; the “EE2 Cmax, Geometric Least Squares (LS) Means (SE)” value (“EE2 Cmax … (LS) Means (SE)” below) is 77.92 (3.839) pg/mL; the “EE2 Cmax, Mean (% CV)” value is 80.63 (26.84) pg/mL. In series [1] (setting [7]), the “EE2 AUC0-t, Geometric Least Squares (LS) Means (SE)” value (“EE2 AUC0-t … (LS) Means (SE)” below) is 590.74 (11.892) h*pg/mL; the “EE2 Cmax … (LS) Means (SE)” value was 55.38 (2.728) pg/mL; the “EE2 Cmax, Mean (% CV)” value is 59.88 (42.19) pg/mL. In addition, the “EE2 PK alteration” value in series [1] (setting [8]) was “not altered”. In addition, in series [1] (setting [9]), the “EE2 AUC0-t, Geometric LSMean % Ratio (SE), 100*Test/Reference” value is 99.04 (2.291) %; the “EE2 AUC0-∞, Geometric LSMean % Ratio (SE), 100*Test/Reference” value was 93.32 (3.570) %; the “EE2 Cmax, Geometric LSMean % Ratio (SE), 100*Test/Reference” value is on record as 104.96 (4.034) %. Moreover, in series [1] (setting [10]), the “EE2 AUC0-t … (LS) Means (SE)” value is 649.96 (10.631) h*pg/mL and the “EE2 AUC0-t, Mean (% CV)” value was 680.48 (28.91) h*pg/mL. In series [1] (setting [11]), the “EE2 AUC0-t … (LS) Means (SE)” value is recorded as 643.74 (10.529) h*pg/mL and the “EE2 Cmax … (LS) Means (SE)” value is 87.16 (2.369) pg/mL.

The AUC(0-t) is the area under the concentration-time curve up to a stated or last time point. High values mean high exposure, low ones low exposure. In general, AUC(0-inf) refers to the area under the concentration-time curve extrapolated to infinity. A lower AUC(0-inf) goes with low exposure. One may read the Cmax as the highest concentration seen after dosing. Consider `C#C[C@]1(O)CC[C@H]2[C@@H]3CCC4=CC(=O)CC[C@@H]4[C@H]3CC[C@@]21C` [NET, norethindrone], for which the “NET Cmax, AUC0-t or AUC0-∞ increased by” value (EE2/NET administered 1 day after SYM-1219) is listed as 9-16%. Further, the “NET Cmax and AUC increased” value under setting [4] is given as 13%. Under setting [5], the “NET AUC0-t, Geometric LSMean % Ratio (SE), 100*Test/Reference” value is 115.52 (5.828) %; the “NET AUC0-∞, Geometric LSMean % Ratio (SE), 100*Test/Reference” value is listed as 116.27 (6.032) %; the “NET Cmax, Geometric LSMean % Ratio (SE), 100*Test/Reference” value is 113.18 (7.958) %. Besides, under setting [6], the “NET λz, Mean” value turned out to be 0.07709 h⁻¹ and the “NET λz, Median” value was 0.07966 h⁻¹. In addition, under setting [7], the “NET t1/2, Median” value was determined as 9.12 h; the “NET λz, Mean” value was determined as 0.07886 h⁻¹; the “NET λz, Median” value turned out to be 0.07642 h⁻¹. For the same compound, under setting [8], the “Change in NET AUC” value is recorded as “no change” and the “NET Cmax increased by” value turned out to be 16%. For the same compound, under setting [9], the “NET AUC0-t, Geometric LSMean % Ratio (SE), 100*Test/Reference” value is recorded as 110.78 (4.104) %; the “NET AUC0-∞, Geometric LSMean % Ratio (SE), 100*Test/Reference” value is 108.75 (4.207) %; the “NET Cmax, Geometric LSMean % Ratio (SE), 100*Test/Reference” value is reported as 116.46 (8.178) %. Under setting [10], the “NET AUC0-∞, Median” value stood at 47.35 ng·h/mL; the “NET t1/2, Median” value turned out to be 9.29 h; the “NET λz, Mean” value is 0.07369 h⁻¹; the “NET λz, Median” value turned out to be 0.07458 h⁻¹. Under setting [11], the “NET AUC0-t, Median” value is 44.53 ng·h/mL; the “NET Cmax, Mean (% CV)” value is given as 10.69 (48.34) ng/mL; the “NET Cmax, Mean (SD)” value is reported as 10.69 (5.169) ng/mL; the “NET Tmax, Median” value came out at 1.000 h. Under setting [11], the “NET t1/2, Median” value turned out to be 9.19 h; the “NET λz, Mean” value came out at 0.07685 h⁻¹; the “NET λz, Median” value was 0.07539 h⁻¹. In addition, the “NET Cmax, AUC0-t or AUC0-∞ increased by” value (SYM-1219 administered immediately after EE2/NET) is reported as 13-16%. In the series “clinical” (setting [6]), this compound yielded an AUC(0-t) of 49.4 ng·h/mL, an AUC(0-inf) of 57.8 ng·h/mL and a Cmax of 9.18 ng/mL. Moreover, in “clinical” (setting [7]), the area under the curve AUC(0-t) came out at 53.5 ng·h/mL, the AUC(0-inf) came out at 62.4 ng·h/mL and the highest concentration (Cmax) came out at 10.1 ng/mL. In “clinical” (setting [10]), the area under the curve AUC(0-t) came out at 61.4 ng·h/mL, the AUC(0-inf) worked out at 75 ng·h/mL and the Cmax was 9.63 ng/mL. Besides, in “clinical” (setting [11]), the AUC(0-t) came out at 61.2 ng·h/mL and the AUC(0-inf) worked out at 71.5 ng·h/mL.

Consider `Cc1ncc([N+](=O)[O-])n1CCO` [metronidazole], for which, in series [2] (setting [12]), the “Isolates exhibiting moderate resistance (aerobic MLC 200 μg/ml)” value was 1% and the “Prevalence of low-level resistance (aerobic MLC 50 μg/ml to 100 μg/ml)” value is 7%. For the same compound, in series [2] (setting [13]), the “MLC, mean (±SD) among all isolates” value is 13.5 ± 26.9 µg/mL (≈ 78.9 µM) and the “MLC, median” value is 6.3 µg/mL (≈ 36.8 µM). Also, the “MLC in the one isolate with a higher MLC for secnidazole than for metronidazole” value in series [2] (single clinical isolate) came out at 1.6 µg/mL. In addition, the “Cure rates in randomized clinical trials of recommended regimens” value in the series with T. vaginalis is recorded as 84%-98%. In addition, the “Cure rate for single dose treatment” value with T. vaginalis (HIV-positive women with trichomoniasis (Kissinger 2010)) is 83.2%. Besides, in the series with T. vaginalis (HIV-uninfected, non-pregnant women, 2018 comparison study), the “Increase in treatment failures with single-dose 2-gram vs 7-day dose (500 mg twice daily)” value is 45%. In the series with T. vaginalis (setting [14]), the “Fewer treatment failures with 7 day-dose compared to single-dose” value is 46% and the “Test of cure (TOC) positive rates after single-dose” value is given as 6.2% to 18.0%. Also, the Half-life in series [3] is 7.3 h.

For the compound `CCS(=O)(=O)CCn1c([N+](=O)[O-])cnc1C` [tinidazole], the “Cure rates in randomized clinical trials of recommended regimens” value with T. vaginalis is 92%-100%. Further, the Half-life in series [3] is 12.5 h.

Source of the values: patent publication US12280037B2, “Method and pharmaceutical composition for treating or preventing trichomoniasis and uses thereof” (EVOFEM BIOSCIENCES, INC., priority 2020, dated 2025).
